Literature values, collected in patent US8518429B2, “Arsenic trioxide medical elution scaffold” (Beijing Amsino Medical Co., Ltd., priority 2007, dated 2013).

How the values were obtained:
promyelocytic leukemia = conditions: used by hematologists in 1970s
VSMCs = conditions: found by Zhuoqi ZHANG et al. and Jianwei SHAO et al.

Arsenic trioxide [As2O3]
therapeutic effect in promyelocytic leukemia (promyelocytic leukemia): notable therapeutic effect
effects on VSMCs (VSMCs): anti-proliferation, apoptosis promotion and cell cycle arrest
